For the experiment, the target named is Thymidylate synthase (Lactobacillus casei). Kind of experiment: In vitro inhibition of Lactobacillus casei Thymidylate synthase.
In turn, `O=C1OC(c2ccc(O)c(Cl)c2)(c2ccc(O)c(Cl)c2)c2cc3ccccc3cc21` [3,3-Bis-(3-chloro-4-hydroxy-phenyl)-3H-naphtho[2,3-c]furan-1-one] had a Ki of 1500 nM.
`O=C1OC(O)(c2ccccc2O)c2cccc3cccc1c23` (stereo not drawn) [3-Hydroxy-3-(2-hydroxy-phenyl)-3H-benzo[de]isochromen-1-one] had a Ki of 105000 nM.
The figure for `O=C1OC(c2ccc(O)c(F)c2)(c2ccc(O)c(F)c2)c2cc3ccccc3cc21` [3,3-Bis-(3-fluoro-4-hydroxy-phenyl)-3H-naphtho[2,3-c]furan-1-one] is 1500 nM; for `O=C1OC(O)(c2ccc(O)c(Cl)c2)c2ccc([N+](=O)[O-])c3cccc1c23` (stereo not drawn) [3-(3-Chloro-4-hydroxy-phenyl)-3-hydroxy-6-nitro-3H-benzo[de]isochromen-1-one] it is 250 nM; for `O=C1OC(c2ccc(O)cc2)(c2ccc(O)c3ccccc23)c2ccccc21` (stereo not drawn) [3-(4-Hydroxy-naphthalen-1-yl)-3-(4-hydroxy-phenyl)-3H-isobenzofuran-1-one] it is 1500 nM.
With `O=C1OC(c2ccc(O)c(Cl)c2)(c2ccc(O)c(Cl)c2)c2ccccc21` [3,3-Bis-(3-chloro-4-hydroxy-phenyl)-3H-isobenzofuran-1-one] the figure was 1900 nM; with `O=C1OC(c2ccc(O)cc2)(c2ccc(O)cc2)c2cc3ccccc3cc21` [3,3-Bis-(4-hydroxy-phenyl)-3H-naphtho[2,3-c]furan-1-one], 7000 nM; with `O=C1OC(c2ccc(O)cc2)(c2ccc(O)cc2)c2ccc3c4c(ccc1c24)CC3` [7,7-Bis-(4-hydroxy-phenyl)-2,7-dihydro-1H-6-oxa-cyclopenta[cd]phenalen-5-one], 1500 nM.
